ChEMBL document CHEMBL3885861, “Open TG-GATES”

Species: Rattus norvegicus
Assay: Open TG-GATES - Regimen: Single
Type: toxicity, organism-based, Sprague-Dawley
Design: regimen Single, gender Male, age 6 weeks
Settings: in vivo, po, route gavage; for APTT / Bas / Eos / Fbg / Hb / Ht / Lym / MCH / MCHC / MCV / Mono / Neu / PT / Plat / RBC / Ret / WBC: tissue Blood; for KIDNEY_L / KIDNEY_R / KIDNEY_TOTAL: tissue Kidney; for LIVER: tissue Liver; for A/G / ALP / ALT / AST / BUN / CRE / Ca / Cl / DBIL / GLC / IP / K / LDH / Na / PL / RALB / TBIL / TC / TG / TP / gamma-GTP: tissue Plasma
[1] = 200 mg/kg, 3 h, dose level Middle
[2] = 200 mg/kg, 6 h, dose level Middle
[3] = 200 mg/kg, 9 h, dose level Middle
[4] = 200 mg/kg, 24 h, dose level Middle
[5] = 600 mg/kg, 3 h, dose level High
[6] = 600 mg/kg, 6 h, dose level High
[7] = 600 mg/kg, 9 h, dose level High
[8] = 600 mg/kg, 24 h, dose level High

CCOC(=O)[C@H](CCc1ccccc1)N[C@@H](C)C(=O)N1CCC[C@H]1C(=O)O
TERMINAL_BW [1]: 221.1 g
APTT [1]: 15.6 s
Bas [1]: 0%
Eos [1]: 1%
Fbg [1]: 207 mg/dL
Hb [1]: 13.1 g/dL
Ht [1]: 39.7%
Lym [1]: 81.6%
MCH [1]: 22.2 pg
MCHC [1]: 33.1%
MCV [1]: 67.1 fL
Mono [1]: 5%
Neu [1]: 12.4%
PT [1]: 12 s
Plat [1]: 117.9 x10_4/uL
RBC [1]: 591.2 x10_4/ul
Ret [1]: 9.1%
WBC [1]: 93.8 x10_2/uL
KIDNEY_L [1]: 1 g
KIDNEY_R [1]: 1 g
KIDNEY_TOTAL [1]: 2.1 g
LIVER [1]: 10.4 g
A/G [1]: 1.8
ALP [1]: 823.4 IU/L
ALT [1]: 45.2 IU/L
AST [1]: 67 IU/L
BUN [1]: 21.2 mg/dL
CRE [1]: 0.5 mg/dL
Ca [1]: 10.8 mg/dL
Cl [1]: 107.2 meq/L
DBIL [1]: 0.01 mg/dL
GLC [1]: 205.4 mg/dL
IP [1]: 9.1 mg/dL
K [1]: 5.5 meq/L
LDH [1]: 101.8 IU/L
Na [1]: 139 meq/L
PL [1]: 129.8 mg/dL
RALB [1]: 3.4 g/dL
TBIL [1]: 0.3 mg/dL
TC [1]: 72.2 mg/dL
TG [1]: 82 mg/dL
TP [1]: 5.3 g/dL
gamma-GTP [1]: 1.6 IU/L
TERMINAL_BW [2]: 215 g
APTT [2]: 16.6 s
Bas [2]: 0%
Eos [2]: 1%
Fbg [2]: 208.6 mg/dL
Hb [2]: 13 g/dL
Ht [2]: 39.7%
Lym [2]: 75%
MCH [2]: 21.2 pg
MCHC [2]: 32.7%
MCV [2]: 64.7 fL
Mono [2]: 9.6%
Neu [2]: 14.4%
PT [2]: 11.9 s
Plat [2]: 109.6 x10_4/uL
RBC [2]: 615.4 x10_4/ul
Ret [2]: 8.9%
WBC [2]: 113.1 x10_2/uL
KIDNEY_L [2]: 1 g
KIDNEY_R [2]: 1 g
KIDNEY_TOTAL [2]: 1.9 g
LIVER [2]: 9.8 g
A/G [2]: 2.1
ALP [2]: 770.4 IU/L
ALT [2]: 43.2 IU/L
AST [2]: 63.2 IU/L
BUN [2]: 22 mg/dL
CRE [2]: 0.5 mg/dL
Ca [2]: 11 mg/dL
Cl [2]: 105.6 meq/L
DBIL [2]: 0.022 mg/dL
GLC [2]: 195.4 mg/dL
IP [2]: 10.4 mg/dL
K [2]: 5.1 meq/L
LDH [2]: 91.6 IU/L
Na [2]: 139 meq/L
PL [2]: 144.6 mg/dL
RALB [2]: 3.6 g/dL
TBIL [2]: 0.5 mg/dL
TC [2]: 79.2 mg/dL
TG [2]: 53.8 mg/dL
TP [2]: 5.3 g/dL
gamma-GTP [2]: 1.2 IU/L
TERMINAL_BW [3]: 214.6 g
APTT [3]: 15.7 s
Bas [3]: 0%
Eos [3]: 1.2%
Fbg [3]: 207.2 mg/dL
Hb [3]: 12.8 g/dL
Ht [3]: 39.2%
Lym [3]: 71.6%
MCH [3]: 21.4 pg
MCHC [3]: 32.6%
MCV [3]: 65.4 fL
Mono [3]: 10.2%
Neu [3]: 17%
PT [3]: 12.1 s
Plat [3]: 108.6 x10_4/uL
RBC [3]: 599.4 x10_4/ul
Ret [3]: 8.8%
WBC [3]: 88.4 x10_2/uL
KIDNEY_L [3]: 1.1 g
KIDNEY_R [3]: 1 g
KIDNEY_TOTAL [3]: 2.1 g
LIVER [3]: 8.8 g
A/G [3]: 2.1
ALP [3]: 931.6 IU/L
ALT [3]: 36.2 IU/L
AST [3]: 65.8 IU/L
BUN [3]: 25.8 mg/dL
CRE [3]: 0.4 mg/dL
Ca [3]: 10.8 mg/dL
Cl [3]: 108 meq/L
DBIL [3]: 0.03 mg/dL
GLC [3]: 189.4 mg/dL
IP [3]: 10.8 mg/dL
K [3]: 5.2 meq/L
LDH [3]: 83.8 IU/L
Na [3]: 139.4 meq/L
PL [3]: 120.4 mg/dL
RALB [3]: 3.5 g/dL
TBIL [3]: 0.4 mg/dL
TC [3]: 69.4 mg/dL
TG [3]: 32.2 mg/dL
TP [3]: 5.2 g/dL
gamma-GTP [3]: 2.2 IU/L
TERMINAL_BW [4]: 230.9 g
APTT [4]: 15.8 s
Bas [4]: 0%
Eos [4]: 1.8%
Fbg [4]: 222.8 mg/dL
Hb [4]: 13 g/dL
Ht [4]: 39.2%
Lym [4]: 71.2%
MCH [4]: 21.4 pg
MCHC [4]: 33.1%
MCV [4]: 64.8 fL
Mono [4]: 8.8%
Neu [4]: 18%
PT [4]: 10.8 s
Plat [4]: 115.7 x10_4/uL
RBC [4]: 606 x10_4/ul
Ret [4]: 8.6%
WBC [4]: 90.5 x10_2/uL
KIDNEY_L [4]: 1.1 g
KIDNEY_R [4]: 1 g
KIDNEY_TOTAL [4]: 2.1 g
LIVER [4]: 11.5 g
A/G [4]: 2
ALP [4]: 915.2 IU/L
ALT [4]: 38.6 IU/L
AST [4]: 67.6 IU/L
BUN [4]: 17.6 mg/dL
CRE [4]: 0.5 mg/dL
Ca [4]: 11 mg/dL
Cl [4]: 103.2 meq/L
DBIL [4]: 0 mg/dL
GLC [4]: 198 mg/dL
IP [4]: 8.4 mg/dL
K [4]: 5 meq/L
LDH [4]: 106.4 IU/L
Na [4]: 137.8 meq/L
PL [4]: 167.4 mg/dL
RALB [4]: 3.8 g/dL
TBIL [4]: 0.5 mg/dL
TC [4]: 91 mg/dL
TG [4]: 89 mg/dL
TP [4]: 5.7 g/dL
gamma-GTP [4]: 1.8 IU/L
TERMINAL_BW [5]: 218.7 g
APTT [5]: 16.5 s
Bas [5]: 0%
Eos [5]: 1.4%
Fbg [5]: 212 mg/dL
Hb [5]: 13.3 g/dL
Ht [5]: 40.4%
Lym [5]: 74%
MCH [5]: 21.6 pg
MCHC [5]: 32.9%
MCV [5]: 65.9 fL
Mono [5]: 9.8%
Neu [5]: 14.6%
PT [5]: 12 s
Plat [5]: 109.7 x10_4/uL
RBC [5]: 614.2 x10_4/ul
Ret [5]: 8.9%
WBC [5]: 93.4 x10_2/uL
KIDNEY_L [5]: 1 g
KIDNEY_R [5]: 1 g
KIDNEY_TOTAL [5]: 1.9 g
LIVER [5]: 10 g
A/G [5]: 2
ALP [5]: 719.2 IU/L
ALT [5]: 83.4 IU/L
AST [5]: 70.2 IU/L
BUN [5]: 22.8 mg/dL
CRE [5]: 0.6 mg/dL
Ca [5]: 10.3 mg/dL
Cl [5]: 106.8 meq/L
DBIL [5]: 0.022 mg/dL
GLC [5]: 201 mg/dL
IP [5]: 9 mg/dL
K [5]: 4.9 meq/L
LDH [5]: 103.4 IU/L
Na [5]: 138.6 meq/L
PL [5]: 125.4 mg/dL
RALB [5]: 3.6 g/dL
TBIL [5]: 0.3 mg/dL
TC [5]: 73.2 mg/dL
TG [5]: 59.4 mg/dL
TP [5]: 5.4 g/dL
gamma-GTP [5]: 2.4 IU/L
TERMINAL_BW [6]: 215.5 g
APTT [6]: 16.6 s
Bas [6]: 0%
Eos [6]: 1.2%
Fbg [6]: 211.2 mg/dL
Hb [6]: 13.3 g/dL
Ht [6]: 40.9%
Lym [6]: 75.4%
MCH [6]: 21.2 pg
MCHC [6]: 32.7%
MCV [6]: 64.8 fL
Mono [6]: 7.4%
Neu [6]: 16.2%
PT [6]: 11.9 s
Plat [6]: 113.3 x10_4/uL
RBC [6]: 632.4 x10_4/ul
Ret [6]: 8.3%
WBC [6]: 96.5 x10_2/uL
KIDNEY_L [6]: 1 g
KIDNEY_R [6]: 1 g
KIDNEY_TOTAL [6]: 2 g
LIVER [6]: 9.1 g
A/G [6]: 2.2
ALP [6]: 701.6 IU/L
ALT [6]: 82.8 IU/L
AST [6]: 75.8 IU/L
BUN [6]: 28.2 mg/dL
CRE [6]: 0.6 mg/dL
Ca [6]: 10.5 mg/dL
Cl [6]: 107.2 meq/L
DBIL [6]: 0.022 mg/dL
GLC [6]: 207 mg/dL
IP [6]: 9.5 mg/dL
K [6]: 5.2 meq/L
LDH [6]: 100.8 IU/L
Na [6]: 138 meq/L
PL [6]: 126.2 mg/dL
RALB [6]: 3.6 g/dL
TBIL [6]: 0.5 mg/dL
TC [6]: 68.2 mg/dL
TG [6]: 36.8 mg/dL
TP [6]: 5.2 g/dL
gamma-GTP [6]: 1.6 IU/L
TERMINAL_BW [7]: 218.5 g
APTT [7]: 16.2 s
Bas [7]: 0%
Eos [7]: 1%
Fbg [7]: 208.8 mg/dL
Hb [7]: 12.7 g/dL
Ht [7]: 39.2%
Lym [7]: 78.6%
MCH [7]: 22.1 pg
MCHC [7]: 32.4%
MCV [7]: 68.3 fL
Mono [7]: 4.2%
Neu [7]: 16.2%
PT [7]: 11.6 s
Plat [7]: 111.9 x10_4/uL
RBC [7]: 575.2 x10_4/ul
Ret [7]: 9.9%
WBC [7]: 91.7 x10_2/uL
KIDNEY_L [7]: 1 g
KIDNEY_R [7]: 1 g
KIDNEY_TOTAL [7]: 1.9 g
LIVER [7]: 8.5 g
A/G [7]: 1.8
ALP [7]: 827.2 IU/L
ALT [7]: 56.2 IU/L
AST [7]: 65.6 IU/L
BUN [7]: 40.8 mg/dL
CRE [7]: 0.5 mg/dL
Ca [7]: 10.9 mg/dL
Cl [7]: 109 meq/L
DBIL [7]: 0.032 mg/dL
GLC [7]: 196.4 mg/dL
IP [7]: 11.1 mg/dL
K [7]: 5.8 meq/L
LDH [7]: 66 IU/L
Na [7]: 138.8 meq/L
PL [7]: 133.8 mg/dL
RALB [7]: 3.4 g/dL
TBIL [7]: 0.4 mg/dL
TC [7]: 76 mg/dL
TG [7]: 26 mg/dL
TP [7]: 5.3 g/dL
gamma-GTP [7]: 1.8 IU/L
TERMINAL_BW [8]: 231.8 g
APTT [8]: 16.2 s
Bas [8]: 0%
Eos [8]: 1.2%
Fbg [8]: 215.6 mg/dL
Hb [8]: 12.8 g/dL
Ht [8]: 38.7%
Lym [8]: 72.2%
MCH [8]: 21.6 pg
MCHC [8]: 33%
MCV [8]: 65.4 fL
Mono [8]: 13%
Neu [8]: 13.8%
PT [8]: 10.9 s
Plat [8]: 115.6 x10_4/uL
RBC [8]: 592.6 x10_4/ul
Ret [8]: 9.2%
WBC [8]: 103.4 x10_2/uL
KIDNEY_L [8]: 1 g
KIDNEY_R [8]: 1 g
KIDNEY_TOTAL [8]: 2 g
LIVER [8]: 12.5 g
A/G [8]: 2
ALP [8]: 1036 IU/L
ALT [8]: 34.4 IU/L
AST [8]: 60 IU/L
BUN [8]: 20 mg/dL
CRE [8]: 0.5 mg/dL
Ca [8]: 11.3 mg/dL
Cl [8]: 104.4 meq/L
DBIL [8]: 0 mg/dL
GLC [8]: 207.4 mg/dL
IP [8]: 8.9 mg/dL
K [8]: 4.8 meq/L
LDH [8]: 101.6 IU/L
Na [8]: 138.6 meq/L
PL [8]: 170.6 mg/dL
RALB [8]: 3.8 g/dL
TBIL [8]: 0.4 mg/dL
TC [8]: 89.6 mg/dL
TG [8]: 132.4 mg/dL
TP [8]: 5.6 g/dL
gamma-GTP [8]: 2.2 IU/L
